From patent US7887827B2, “Use of malonomicin and analogs in fungicidal applications” (Dow AgroSciences LLC, priority 2006, dated 2011)

How the values were obtained:
Format in all cases: in vivo
[1] = system: Puccinia recondita f. sp. tritici (PUCCRT); assay: Drop Line Test on wheat leaf, Brown Rust of Wheat; conditions: Drop Line Test 0.5 μg/leaf, 2 microliter drop
Method: Wheat (cultivar Monon) was grown in plastic pots (6.2 cm×8.75 cm) containing 50 percent mineral soil, 50 percent Metro-Mix 360 (W.R Grace and Co.) until the seedlings were 10-20 cm tall. These plants were then sprayed to runoff with the test compound at a rate of 200 ppm. After 24 hours the test plants were inoculated by spraying with an aqueous spore suspension of Puccinia recondita f. sp. tritici (PUCCRT). The plants were then transferred to a dew chamber for 24 hours, then to the greenhouse until disease developed on the untreated control plants. In Example 3, a Drop Line Test was used, wherein instead of spraying the plant to runoff, a 2 microliter drop was placed on the wheat leaf and observed for disease control.

[2] = system: Venturia inaequalis (VENTIN); assay: One day protectant (1 DP) test, Apple Scab; conditions: 0.1 percent Spraymate X77 + 0.1 percent ammonium sulfate
[3] = system: Venturia inaequalis (VENTIN); assay: Curative test, Apple Scab (compound added 2 days after inoculation); conditions: curative at 200 ppm

| Compound | PUCCRT percent control of plant disease, Drop Line Test [1] | VENTIN percent control of plant disease ([2]; 50 ppm and 100 ppm) | VENTIN percent control of plant disease ([2]; rate 200 ppm) | VENTIN percent control of plant disease, curative [3] |
| --- | --- | --- | --- | --- |
| C[C@H](N)C(=O)NC(CC(=O)O)(CC(=O)C1=C(O)[C@H](CN)NC1=O)C(=O)O (stereo partly shown) [Compound III] | + (+ = 30-74 percent control of plant disease) | – | – | – |
| NC[C@@H]1NC(=O)C(C(=O)CC(NC(=O)[C@@H](N)CO)(C(=O)O)C(=O)O)=C1O [Compound I, {[(2S)-2-amino-3-hydroxypropanoyl]amino}{2-[(5S)-5-(aminomethyl)-4-hydroxy-2-oxo-2,5-dihydro-1H-pyrrol-3-yl]-2-oxoethyl}malonic acid] | – | ++ (++ = 75-100 percent control of plant disease) | + (+ = 30-74 percent control of plant disease) | ++^α (++ = 75-100 percent control of plant disease) |
